Reference: BigSolDB 2.1

N[C@@H](CC(=O)N1CCn2c(nnc2C(F)(F)F)C1)Cc1cc(F)c(F)cc1F
Conditions | solubility (mole fraction)
in THF, 278.15 K | 0.0212
in THF, 283.15 K | 0.0274
in THF, 288.15 K | 0.0322
in THF, 293.15 K | 0.0363
in THF, 298.15 K | 0.0463
in THF, 303.15 K | 0.0554
in THF, 308.15 K | 0.0625
in THF, 313.15 K | 0.0756
in THF, 318.15 K | 0.0933
in THF, 323.25 K | 0.114
in acetonitrile, 278.15 K | 0.0265
in acetonitrile, 283.15 K | 0.0354
in acetonitrile, 288.15 K | 0.0432
in acetonitrile, 293.15 K | 0.0536
in acetonitrile, 298.15 K | 0.0576
in acetonitrile, 303.15 K | 0.0681
in acetonitrile, 308.15 K | 0.0888
in acetonitrile, 313.15 K | 0.105
in acetonitrile, 318.15 K | 0.128
in acetonitrile, 323.15 K | 0.156
in ethanol, 273.15 K | 0.00768
in ethanol, 278.15 K | 0.0108
in ethanol, 283.15 K | 0.0138
in ethanol, 288.15 K | 0.0179
in ethanol, 293.15 K | 0.0233
in ethanol, 298.15 K | 0.0298
in ethanol, 303.15 K | 0.0363
in ethanol, 308.15 K | 0.0451
in ethanol, 313.15 K | 0.0606
in ethanol, 318.15 K | 0.078
in ethyl acetate, 278.15 K | 0.00986
in ethyl acetate, 283.15 K | 0.0117
in ethyl acetate, 288.15 K | 0.014
in ethyl acetate, 293.15 K | 0.0167
in ethyl acetate, 298.15 K | 0.02
in ethyl acetate, 303.15 K | 0.0242
in ethyl acetate, 308.15 K | 0.0286
in ethyl acetate, 313.15 K | 0.0353
in ethyl acetate, 318.15 K | 0.0435
in ethyl acetate, 323.15 K | 0.0565
in isobutanol, 278.15 K | 0.0101
in isobutanol, 283.15 K | 0.0123
in isobutanol, 288.15 K | 0.014
in isobutanol, 293.15 K | 0.0158
in isobutanol, 298.15 K | 0.0191
in isobutanol, 303.15 K | 0.0216
in isobutanol, 308.15 K | 0.0255
in isobutanol, 313.15 K | 0.0301
in isobutanol, 318.15 K | 0.0334
in isobutanol, 323.15 K | 0.0379
in isopentanol, 278.15 K | 0.00453
in isopentanol, 283.15 K | 0.0054
in isopentanol, 288.15 K | 0.00647
in isopentanol, 293.15 K | 0.00801
in isopentanol, 298.15 K | 0.0104
in isopentanol, 303.15 K | 0.0123
in isopentanol, 308.15 K | 0.0154
in isopentanol, 313.15 K | 0.0184
in isopentanol, 318.15 K | 0.0232
in isopentanol, 323.15 K | 0.0316
in isopropanol, 273.15 K | 0.00439
in isopropanol, 278.15 K | 0.00482
in isopropanol, 283.15 K | 0.00579
in isopropanol, 288.15 K | 0.00703
in isopropanol, 293.15 K | 0.00857
in isopropanol, 298.15 K | 0.0103
in isopropanol, 303.15 K | 0.0122
in isopropanol, 308.15 K | 0.0139
in isopropanol, 313.15 K | 0.0162
in isopropanol, 318.15 K | 0.0188
in methyl acetate, 278.15 K | 0.0397
in methyl acetate, 283.15 K | 0.05
in methyl acetate, 288.15 K | 0.0545
in methyl acetate, 293.15 K | 0.063
in methyl acetate, 298.15 K | 0.0728
in methyl acetate, 303.15 K | 0.0835
in methyl acetate, 308.15 K | 0.0954
in methyl acetate, 313.15 K | 0.111
in methyl acetate, 318.15 K | 0.126
in methyl acetate, 323.15 K | 0.139
in n-butanol, 278.15 K | 0.0105
in n-butanol, 283.15 K | 0.0129
in n-butanol, 288.15 K | 0.0141
in n-butanol, 293.15 K | 0.0177
in n-butanol, 298.15 K | 0.0208
in n-butanol, 303.15 K | 0.0243
in n-butanol, 308.15 K | 0.0262
in n-butanol, 313.15 K | 0.0328
in n-butanol, 318.15 K | 0.0382
in n-butanol, 323.15 K | 0.0452
in n-propanol, 278.15 K | 0.00795
in n-propanol, 283.15 K | 0.011
in n-propanol, 288.15 K | 0.0123
in n-propanol, 293.15 K | 0.0183
in n-propanol, 298.15 K | 0.022
in n-propanol, 303.15 K | 0.0278
in n-propanol, 308.15 K | 0.0387
in n-propanol, 313.1 K | 0.0433
in n-propanol, 318.15 K | 0.0572
in n-propanol, 323.15 K | 0.0804
in sec-butanol, 278.15 K | 0.00274
in sec-butanol, 283.15 K | 0.00346
in sec-butanol, 288.15 K | 0.0047
in sec-butanol, 293.15 K | 0.00513
in sec-butanol, 298.15 K | 0.00739
in sec-butanol, 303.15 K | 0.00958
in sec-butanol, 308.15 K | 0.0115
in sec-butanol, 313.15 K | 0.0142
in sec-butanol, 318.15 K | 0.0194
in sec-butanol, 323.15 K | 0.0224
in water, 278.15 K | 0.000281
in water, 283.15 K | 0.000319
in water, 288.15 K | 0.000349
in water, 293.15 K | 0.000376
in water, 298.15 K | 0.00042
in water, 303.15 K | 0.000458
in water, 308.15 K | 0.000499
in water, 313.15 K | 0.000542
in water, 318.15 K | 0.000574
in water, 323.15 K | 0.000633
